Measured values as given in ChEMBL document CHEMBL1201862, “PubChem BioAssay data set” (2004).
Active and inactive are the calls of the source.

Columns and labels:
[1] = molecular target: T1, Replicative DNA helicase DnaB (Mycobacterium tuberculosis, UniProt P9WMR3); experiment: DnaB intein splicing inhibitors, dose response, biochemical, cell-free fluorescence (AID 449749); type: functional
T1 sequence (P9WMR3 whole entry): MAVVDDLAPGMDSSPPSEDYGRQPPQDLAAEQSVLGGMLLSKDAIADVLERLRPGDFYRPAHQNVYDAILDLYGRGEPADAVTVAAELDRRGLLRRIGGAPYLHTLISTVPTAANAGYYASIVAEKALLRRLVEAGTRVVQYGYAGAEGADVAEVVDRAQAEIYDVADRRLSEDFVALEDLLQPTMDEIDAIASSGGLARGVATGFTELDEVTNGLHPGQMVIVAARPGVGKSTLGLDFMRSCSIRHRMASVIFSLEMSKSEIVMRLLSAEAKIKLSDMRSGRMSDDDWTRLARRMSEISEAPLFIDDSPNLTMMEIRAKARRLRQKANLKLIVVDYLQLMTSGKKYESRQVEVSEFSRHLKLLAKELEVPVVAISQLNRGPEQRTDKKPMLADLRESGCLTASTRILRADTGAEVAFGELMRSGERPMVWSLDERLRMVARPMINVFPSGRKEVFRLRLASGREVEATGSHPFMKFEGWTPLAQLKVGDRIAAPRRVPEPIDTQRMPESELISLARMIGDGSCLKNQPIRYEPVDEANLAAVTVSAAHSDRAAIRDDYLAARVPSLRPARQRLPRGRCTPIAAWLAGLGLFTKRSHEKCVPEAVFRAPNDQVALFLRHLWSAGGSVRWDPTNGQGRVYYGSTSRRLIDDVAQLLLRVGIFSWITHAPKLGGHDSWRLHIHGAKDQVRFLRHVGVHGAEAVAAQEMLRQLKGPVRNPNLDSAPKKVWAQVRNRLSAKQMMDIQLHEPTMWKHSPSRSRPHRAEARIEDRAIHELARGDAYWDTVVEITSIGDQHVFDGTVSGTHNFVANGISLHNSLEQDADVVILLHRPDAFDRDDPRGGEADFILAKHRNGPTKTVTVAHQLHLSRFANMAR

[2] = molecular target: Potassium voltage-gated channel subfamily KQT member 2 (Rattus norvegicus, UniProt O88943, W236L); experiment: potentiation of rat KCNQ2 current – cell-based, automated electrophysiology, mechanism study for KCNQ2 potentiator project, dose response (AID 2603); type: functional
Chain of Potassium voltage-gated channel subfamily KQT member 2 (O88943 whole entry W236L): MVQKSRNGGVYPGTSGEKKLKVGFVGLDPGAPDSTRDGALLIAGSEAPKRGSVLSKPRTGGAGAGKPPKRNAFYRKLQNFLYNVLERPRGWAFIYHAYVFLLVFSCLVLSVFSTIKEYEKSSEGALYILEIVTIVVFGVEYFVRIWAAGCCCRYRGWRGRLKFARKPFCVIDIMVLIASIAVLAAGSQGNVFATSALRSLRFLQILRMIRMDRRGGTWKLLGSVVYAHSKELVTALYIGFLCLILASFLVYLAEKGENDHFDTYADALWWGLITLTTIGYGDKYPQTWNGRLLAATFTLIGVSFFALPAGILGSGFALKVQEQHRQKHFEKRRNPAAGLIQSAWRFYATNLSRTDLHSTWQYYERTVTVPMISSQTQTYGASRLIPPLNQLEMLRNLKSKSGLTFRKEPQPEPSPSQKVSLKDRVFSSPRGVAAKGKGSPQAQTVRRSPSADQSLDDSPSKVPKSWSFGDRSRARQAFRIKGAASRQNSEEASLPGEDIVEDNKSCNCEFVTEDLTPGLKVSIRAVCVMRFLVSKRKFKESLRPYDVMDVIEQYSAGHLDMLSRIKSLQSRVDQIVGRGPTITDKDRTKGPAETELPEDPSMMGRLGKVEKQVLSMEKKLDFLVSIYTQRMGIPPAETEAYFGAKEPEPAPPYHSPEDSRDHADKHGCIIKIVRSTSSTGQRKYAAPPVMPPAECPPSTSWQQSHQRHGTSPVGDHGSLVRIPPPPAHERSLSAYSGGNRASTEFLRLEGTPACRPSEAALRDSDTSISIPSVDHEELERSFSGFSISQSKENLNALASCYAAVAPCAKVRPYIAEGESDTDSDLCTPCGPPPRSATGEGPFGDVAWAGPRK

[3] = non-specific 3'UTR reporter inhibition in Clone20-Shn3RL – cell-based, Renilla luciferase, cherry-picked, counter-screen for Shn3 inhibitor project, dose response (AID 624133); type: functional
Protein RecA = molecular target: T2, Protein RecA (Mycobacterium tuberculosis, UniProt P9WHJ3); experiment: Fluorescence Cell-Free Homogeneous Dose Retest to Identify Inhibitors of RecA-Intein Splicing Activity. [Related pubchem assays (depositor defined):AID2097, AID2223, AID489010, AID492950]; type: functional
T2 sequence (P9WHJ3 whole entry): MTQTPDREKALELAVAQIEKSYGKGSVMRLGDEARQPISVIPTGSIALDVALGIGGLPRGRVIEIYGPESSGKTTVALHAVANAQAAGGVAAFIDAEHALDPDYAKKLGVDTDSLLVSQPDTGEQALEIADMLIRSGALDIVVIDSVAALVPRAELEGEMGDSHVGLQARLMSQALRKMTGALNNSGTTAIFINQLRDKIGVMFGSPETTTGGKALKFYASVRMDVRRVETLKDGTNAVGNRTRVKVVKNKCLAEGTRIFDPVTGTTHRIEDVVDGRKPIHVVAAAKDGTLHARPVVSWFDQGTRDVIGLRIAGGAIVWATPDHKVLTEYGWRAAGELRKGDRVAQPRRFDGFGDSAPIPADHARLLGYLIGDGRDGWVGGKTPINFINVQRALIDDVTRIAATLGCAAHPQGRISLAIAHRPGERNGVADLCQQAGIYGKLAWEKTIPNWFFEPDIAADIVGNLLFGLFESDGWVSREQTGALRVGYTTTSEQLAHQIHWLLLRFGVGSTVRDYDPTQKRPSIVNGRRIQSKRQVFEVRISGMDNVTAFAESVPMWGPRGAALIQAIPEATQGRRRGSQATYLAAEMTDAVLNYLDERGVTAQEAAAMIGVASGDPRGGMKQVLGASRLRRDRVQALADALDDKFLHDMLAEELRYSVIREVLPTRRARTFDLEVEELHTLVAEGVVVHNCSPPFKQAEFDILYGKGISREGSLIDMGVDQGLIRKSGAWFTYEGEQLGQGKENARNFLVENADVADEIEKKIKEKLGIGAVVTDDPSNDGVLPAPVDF

[4] = molecular target: T3, Hepatocyte nuclear factor 4-alpha (Homo sapiens, UniProt P41235); type: functional, cell-based;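 also: biochemical luminescence-based dose-response counterscreen measuring inhibition of HNF4 dimerization, run alongside a screen for blockers of ABHD5–perilipin-5 interaction; split luciferase complementation of HNF4 fusion proteins in cell lysate measuring dimerization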
T3 sequence (P41235 whole entry): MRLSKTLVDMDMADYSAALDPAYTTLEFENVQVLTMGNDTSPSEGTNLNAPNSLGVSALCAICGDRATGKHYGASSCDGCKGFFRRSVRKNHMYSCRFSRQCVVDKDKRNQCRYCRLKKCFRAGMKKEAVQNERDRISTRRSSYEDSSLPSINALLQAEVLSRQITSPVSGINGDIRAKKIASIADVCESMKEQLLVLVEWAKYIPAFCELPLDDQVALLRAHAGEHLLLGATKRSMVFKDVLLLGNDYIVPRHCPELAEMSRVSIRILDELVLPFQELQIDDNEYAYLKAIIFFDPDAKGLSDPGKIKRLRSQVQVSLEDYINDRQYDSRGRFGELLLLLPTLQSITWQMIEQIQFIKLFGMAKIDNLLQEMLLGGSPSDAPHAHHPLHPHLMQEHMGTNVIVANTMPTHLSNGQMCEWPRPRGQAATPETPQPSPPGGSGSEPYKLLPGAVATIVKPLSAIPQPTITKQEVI

[5] = reduction of Shn3 3'UTR-driven luciferase in osteoblasts – cell-based, Clone20 osteoblasts, firefly luciferase, cherry-picked, dose response (AID 624132); type: functional;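 also: firefly luciferase luminescence from reporter carrying the Shn3 3'UTR in osteoblasts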
[6] = loss of viability in HepG2 cells – cell-based, CellTiter-Glo, cherry-picked, cytotoxicity control for Shn3 inhibitor project, dose response (AID 624134); type: functional
[7] = molecular target: Serine/threonine-protein phosphatase (Homo sapiens, UniProt Q9BPW0); experiment: inhibition of protein phosphatase 5 activity – biochemical, fluorescence, dose response (AID 2395)
Chain of Serine/threonine-protein phosphatase (Q9BPW0 whole entry): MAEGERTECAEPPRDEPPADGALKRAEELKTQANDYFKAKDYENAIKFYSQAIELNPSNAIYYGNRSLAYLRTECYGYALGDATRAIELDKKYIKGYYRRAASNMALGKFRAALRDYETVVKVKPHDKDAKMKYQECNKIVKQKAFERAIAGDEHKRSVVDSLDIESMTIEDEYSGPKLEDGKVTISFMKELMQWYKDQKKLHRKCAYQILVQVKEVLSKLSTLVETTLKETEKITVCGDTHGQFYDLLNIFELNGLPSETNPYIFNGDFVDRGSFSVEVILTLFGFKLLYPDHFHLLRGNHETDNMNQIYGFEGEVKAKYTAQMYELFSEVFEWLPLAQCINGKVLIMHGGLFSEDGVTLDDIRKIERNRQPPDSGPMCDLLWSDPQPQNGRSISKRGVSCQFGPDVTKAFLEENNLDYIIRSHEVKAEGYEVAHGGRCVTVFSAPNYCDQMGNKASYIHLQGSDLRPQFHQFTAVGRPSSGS

[8] = molecular target: Serine/threonine-protein phosphatase PP1-alpha catalytic subunit (Homo sapiens, UniProt P62136); experiment: inhibition of protein phosphatase 1 activity – biochemical, fluorescence, dose response (AID 2394)
Chain of Serine/threonine-protein phosphatase PP1-alpha catalytic subunit (P62136 whole entry): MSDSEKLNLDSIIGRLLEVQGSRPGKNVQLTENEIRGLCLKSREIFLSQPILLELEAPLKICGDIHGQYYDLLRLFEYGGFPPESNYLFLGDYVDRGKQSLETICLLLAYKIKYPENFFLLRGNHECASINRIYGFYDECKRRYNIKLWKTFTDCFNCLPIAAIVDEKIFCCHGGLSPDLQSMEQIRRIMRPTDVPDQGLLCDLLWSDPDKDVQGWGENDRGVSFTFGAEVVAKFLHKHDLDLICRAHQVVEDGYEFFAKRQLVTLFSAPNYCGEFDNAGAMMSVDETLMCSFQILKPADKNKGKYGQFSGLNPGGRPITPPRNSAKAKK

[9] = viability of PTEN-deleted HCT116 cells – cell-based, HCT116 PTEN knockout, dose response (AID 1047); type: functional;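 also: HCT116 colon tumor cells with PTEN knocked out; cells exposed to compound for 60 hours before readout; potency for loss of cell viability measured by luminescence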
[10] = molecular target: T4, Endoribonuclease toxin MazF (Escherichia coli K-12, UniProt P0AE70); experiment: activation of MazEF endoribonuclease cleavage – biochemical, fluorescence, single-stranded RNA substrate, uHTS hits, dose response (AID 588481); type: functional
T4 sequence (P0AE70 whole entry): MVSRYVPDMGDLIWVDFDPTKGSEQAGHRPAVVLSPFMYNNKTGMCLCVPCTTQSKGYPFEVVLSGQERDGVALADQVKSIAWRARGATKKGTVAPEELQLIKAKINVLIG

BJ [11] = experiment: cells; type: functional, cell-based; conditions: Homo sapiens
[12] = Luminescence Cell-Based Dose Retest to Confirm Inhibitors of Cancer Stem Cells. [Related pubchem assays (depositor defined):AID2717, AID2721]; type: functional; conditions: Homo sapiens
[13] = viability of HCT116 lacking mutant beta-catenin – cell-based, human colon tumor, dose response (AID 1045); type: functional;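 also: HCT116 colon tumor cells with beta catenin knocked out; cells exposed to compound for 60 hours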
BJ [14] = experiment: BJ-TERT-LT-ST fibroblast viability loss – cell-based, RAS-independent, luminescence, dose response (AID 1935); type: functional; conditions: Homo sapiens;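 also: BJ fibroblasts immortalized with TERT plus LT and ST oncogenes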
[15] = DRD fibroblast viability loss – cell-based, non-viral oncogenic, luminescence, dose response (AID 1934); type: functional; conditions: Homo sapiens
[16] = molecular target: T4, Endoribonuclease toxin MazF; experiment: substrate-only fluorescence increase artefacts – biochemical, single-stranded RNase substrate, counter-screen for MazEF activator project, dose response (AID 588502); type: functional
[17] = M. tuberculosis H37Rv growth inhibitors, H37Rv strain (AID 1626); type: functional
BJ [18] = experiment: BJ-TERT fibroblast viability loss – cell-based, RAS-independent, luminescence, dose response (AID 1933); type: functional; conditions: Homo sapiens
Vero [19] = experiment: cells; type: functional; conditions: Chlorocebus sabaeus
Vero [20] = experiment: cells; type: functional, cell-based; conditions: Chlorocebus sabaeus
[21] = molecular target: Transitional endoplasmic reticulum ATPase (Homo sapiens, UniProt P55072, C522A); experiment: Luminescence counterscreen assay for p97 inhibitors: dose response biochemical high throughput screening assay to identify inhibitors of the C522A mutant p97 ATPase: synthesized compounds. [Related pubchem assays: 1481, 1517, 1551 ]
Chain of Transitional endoplasmic reticulum ATPase (Homo sapiens, UniProt P55072, C522A) (P55072 2-806 C522A limits assumed): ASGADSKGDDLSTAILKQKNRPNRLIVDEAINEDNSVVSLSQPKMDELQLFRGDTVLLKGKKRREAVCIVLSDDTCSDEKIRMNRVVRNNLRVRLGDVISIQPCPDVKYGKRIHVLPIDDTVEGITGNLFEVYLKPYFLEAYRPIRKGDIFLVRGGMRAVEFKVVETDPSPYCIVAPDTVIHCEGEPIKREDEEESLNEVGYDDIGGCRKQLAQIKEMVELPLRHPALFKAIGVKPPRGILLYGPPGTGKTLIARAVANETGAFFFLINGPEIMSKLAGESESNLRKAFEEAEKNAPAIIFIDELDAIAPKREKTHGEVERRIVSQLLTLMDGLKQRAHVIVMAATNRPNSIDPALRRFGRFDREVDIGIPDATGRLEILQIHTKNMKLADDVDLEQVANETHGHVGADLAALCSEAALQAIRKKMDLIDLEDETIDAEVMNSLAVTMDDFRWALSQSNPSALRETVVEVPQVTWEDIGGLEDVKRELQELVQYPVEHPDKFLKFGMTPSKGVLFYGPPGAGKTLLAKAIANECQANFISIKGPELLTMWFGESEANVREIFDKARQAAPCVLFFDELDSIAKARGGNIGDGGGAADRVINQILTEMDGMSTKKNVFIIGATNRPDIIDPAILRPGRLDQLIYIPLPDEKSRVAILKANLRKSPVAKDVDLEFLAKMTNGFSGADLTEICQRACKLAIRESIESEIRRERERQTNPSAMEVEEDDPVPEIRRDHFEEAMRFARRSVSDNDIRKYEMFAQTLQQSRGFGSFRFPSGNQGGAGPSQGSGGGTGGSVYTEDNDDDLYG

[22] = molecular target: Transitional endoplasmic reticulum ATPase (Homo sapiens, UniProt P55072); experiment: Luminescence dose response biochemical high throughput screening assay for inhibitors of the p97 ATPase: synthesized compounds. [Related pubchem assays: 1481, 1517 ]
Chain of Transitional endoplasmic reticulum ATPase (Homo sapiens, UniProt P55072) (P55072 whole entry): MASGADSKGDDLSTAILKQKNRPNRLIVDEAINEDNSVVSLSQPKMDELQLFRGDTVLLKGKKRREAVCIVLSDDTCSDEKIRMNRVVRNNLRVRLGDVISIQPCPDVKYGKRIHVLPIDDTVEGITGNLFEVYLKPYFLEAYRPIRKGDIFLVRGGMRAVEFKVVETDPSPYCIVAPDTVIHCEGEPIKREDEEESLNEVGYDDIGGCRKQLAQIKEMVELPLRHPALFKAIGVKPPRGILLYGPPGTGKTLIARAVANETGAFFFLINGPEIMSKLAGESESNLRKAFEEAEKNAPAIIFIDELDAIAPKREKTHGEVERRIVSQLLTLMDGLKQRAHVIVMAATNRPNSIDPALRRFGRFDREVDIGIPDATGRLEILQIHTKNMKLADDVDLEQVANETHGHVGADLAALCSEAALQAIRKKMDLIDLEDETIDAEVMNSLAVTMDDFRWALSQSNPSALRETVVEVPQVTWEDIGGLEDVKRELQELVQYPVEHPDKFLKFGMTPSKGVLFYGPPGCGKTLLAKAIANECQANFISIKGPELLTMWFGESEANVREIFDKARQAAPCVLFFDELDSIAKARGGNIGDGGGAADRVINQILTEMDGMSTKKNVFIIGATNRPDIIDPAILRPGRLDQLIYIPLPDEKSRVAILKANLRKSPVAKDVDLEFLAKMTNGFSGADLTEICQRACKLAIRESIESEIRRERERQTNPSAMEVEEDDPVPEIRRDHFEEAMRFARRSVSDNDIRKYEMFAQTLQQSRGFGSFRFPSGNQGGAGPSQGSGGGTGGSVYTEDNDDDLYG

[23] = molecular target: Sphingosine 1-phosphate receptor 2 (Homo sapiens, UniProt O95136); experiment: Dose Response Cell Based Assay for Agonists of the S1P2 Receptor of Purchased Analogues. [Related pubchem assays: 729, 843, 854, 736 ]; type: functional
Chain of Sphingosine 1-phosphate receptor 2 (O95136 whole entry): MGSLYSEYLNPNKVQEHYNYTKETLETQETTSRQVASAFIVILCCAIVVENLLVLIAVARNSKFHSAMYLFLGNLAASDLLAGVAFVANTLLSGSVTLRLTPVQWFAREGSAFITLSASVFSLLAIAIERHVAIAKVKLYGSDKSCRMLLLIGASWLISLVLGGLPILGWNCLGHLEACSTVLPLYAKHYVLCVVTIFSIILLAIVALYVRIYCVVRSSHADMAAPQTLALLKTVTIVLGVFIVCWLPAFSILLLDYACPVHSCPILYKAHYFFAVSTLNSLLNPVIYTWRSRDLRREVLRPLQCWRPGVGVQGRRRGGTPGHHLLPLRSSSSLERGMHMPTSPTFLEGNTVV

[24] = molecular target: T5, Ubiquitin-conjugating enzyme E2 N (Homo sapiens, UniProt P61088); type: functional;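 also: Dose-response confirmation in a TR-FRET assay detecting UBC13-driven polyubiquitin chain formation, inhibition measured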
T5 sequence (P61088 whole entry): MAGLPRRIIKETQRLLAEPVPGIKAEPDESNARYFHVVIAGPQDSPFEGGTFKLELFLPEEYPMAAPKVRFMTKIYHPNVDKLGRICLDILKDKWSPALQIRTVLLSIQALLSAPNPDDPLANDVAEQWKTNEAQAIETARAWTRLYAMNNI

[25] = Luminescence-based dose response cell-based high throughput screening assay for cytotoxic compounds using the IEC-6 intestinal epithelial cell line. [Related pubchem assays: 1858 (Summary AID.), 1825 (Counterscreen.), 1907 (Confirmation screen.)]; type: functional
[26] = HPDE-C7 pancreatic duct cell viability loss – fluorescence, HTS (AID 430); type: functional, cell-based; conditions: Homo sapiens
Genome polyprotein = Genome polyprotein (dengue virus type 2, UniProt P29990); experiment: flavivirus cap methylation enzyme inhibition – biochemical, confirmation dose response, primary screen (AID 588689); type: functional
Chain of Genome polyprotein (P29990 2492-3391 limits assumed): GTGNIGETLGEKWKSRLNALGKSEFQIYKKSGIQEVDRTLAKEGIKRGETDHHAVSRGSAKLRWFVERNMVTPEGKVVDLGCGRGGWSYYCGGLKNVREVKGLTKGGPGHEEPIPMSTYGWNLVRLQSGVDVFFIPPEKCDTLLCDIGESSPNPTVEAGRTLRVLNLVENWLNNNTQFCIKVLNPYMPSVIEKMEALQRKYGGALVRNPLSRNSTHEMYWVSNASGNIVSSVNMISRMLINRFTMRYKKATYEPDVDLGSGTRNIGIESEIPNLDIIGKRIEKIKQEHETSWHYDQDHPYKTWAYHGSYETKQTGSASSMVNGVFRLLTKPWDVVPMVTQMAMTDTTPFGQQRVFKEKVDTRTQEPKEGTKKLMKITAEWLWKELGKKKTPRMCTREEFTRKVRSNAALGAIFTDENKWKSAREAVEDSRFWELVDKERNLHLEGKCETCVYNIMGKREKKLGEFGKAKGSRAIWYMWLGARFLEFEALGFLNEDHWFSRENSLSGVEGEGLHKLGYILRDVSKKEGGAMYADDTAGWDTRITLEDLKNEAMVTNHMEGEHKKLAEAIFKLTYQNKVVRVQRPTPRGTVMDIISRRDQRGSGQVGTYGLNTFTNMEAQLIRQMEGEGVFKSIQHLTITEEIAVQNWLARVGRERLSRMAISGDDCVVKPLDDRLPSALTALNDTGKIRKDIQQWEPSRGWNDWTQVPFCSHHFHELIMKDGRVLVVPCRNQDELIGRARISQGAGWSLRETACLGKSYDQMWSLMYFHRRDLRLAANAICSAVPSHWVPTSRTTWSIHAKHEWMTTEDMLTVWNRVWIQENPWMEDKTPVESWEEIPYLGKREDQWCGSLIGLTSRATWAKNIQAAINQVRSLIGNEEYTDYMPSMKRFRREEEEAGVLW

[27] = molecular target: T6, Mannose-6-phosphate isomerase (Homo sapiens, UniProt P34949); experiment: MPI enzyme activity inhibition – biochemical, fluorescence intensity, coupled assay, primary screen (AID 1209)
T6 sequence (P34949 whole entry): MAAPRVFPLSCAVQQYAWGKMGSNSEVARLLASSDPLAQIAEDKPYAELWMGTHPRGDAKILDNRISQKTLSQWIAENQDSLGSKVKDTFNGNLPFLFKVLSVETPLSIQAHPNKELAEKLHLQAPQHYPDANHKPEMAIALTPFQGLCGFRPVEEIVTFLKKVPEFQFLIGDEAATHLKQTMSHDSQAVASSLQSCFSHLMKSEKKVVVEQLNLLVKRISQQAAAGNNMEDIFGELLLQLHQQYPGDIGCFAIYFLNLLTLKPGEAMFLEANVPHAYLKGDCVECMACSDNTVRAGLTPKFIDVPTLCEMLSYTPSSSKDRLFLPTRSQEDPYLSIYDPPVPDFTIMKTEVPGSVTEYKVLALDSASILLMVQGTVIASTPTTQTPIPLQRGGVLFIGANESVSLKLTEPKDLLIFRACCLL

Nonstructural protein 1 = Nonstructural protein 1 (Influenza A virus, UniProt Q194T2); type: functional, Influenza A virus (A/California/07/2009(H1N1))
Chain of Nonstructural protein 1 (Q194T2 whole entry): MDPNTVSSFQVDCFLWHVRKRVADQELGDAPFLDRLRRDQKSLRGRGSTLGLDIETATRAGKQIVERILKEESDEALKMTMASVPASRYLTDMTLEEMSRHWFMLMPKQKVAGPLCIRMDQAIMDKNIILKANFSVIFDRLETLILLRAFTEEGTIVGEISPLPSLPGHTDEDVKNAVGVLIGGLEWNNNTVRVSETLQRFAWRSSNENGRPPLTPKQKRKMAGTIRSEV

[28] = viability loss of HPDE-C7K cells – cell-based, fluorescence, HTS, primary screen (AID 431); type: functional; conditions: Homo sapiens
[29] = molecular target: T6, Mannose-6-phosphate isomerase; experiment: MPI inhibition at elevated mannose 6-phosphate – biochemical, fluorescence intensity, high mannose 6-phosphate, primary screen (AID 1220)

Cc1nnc(NC(=O)c2nc(S(=O)(=O)Cc3ccccc3C)ncc2Cl)s1
AC50 [1]: > 380 µM (inactive) | EC50 [2]: 692 µM (active) | AC50 [3]: 14.5 µM (active) | EC50 (Protein RecA): > 380 µM (inactive) | IC50 [4]: 4.41 µM (active) | AC50 [5]: 0.812 µM (active) | AC50 [6]: 57 µM (active)

CCOC(=O)c1nn(-c2ccc(C)cc2)c(=O)c2c(N)scc12
AC50 [1]: 89.9 µM (active) | EC50 (Protein RecA): 11.4 µM (active) | IC50 [7]: 9.99 µM (active) | IC50 [8]: > 67 µM (not active)

Cc1cccc(-n2c(/C=C/c3ccc([N+](=O)[O-])o3)nc3ccccc3c2=O)c1
EC50 [9]: 0.552 µM (active) | EC50 [10]: > 99 µM (inactive) | EC50 (BJ [11]): 4.86 µM (inconclusive) | AC50 [12]: 1.72 µM (active) | EC50 [13]: 0.61 µM (active) | EC50 (BJ [14]): 3.69 µM (inconclusive) | EC50 [15]: 5.82 µM (active) | EC50 [16]: 8.27 µM (active) | IC50 [17]: > 100 µM (active) | EC50 (BJ [18]): 5.28 µM (inconclusive) | CC50 (Vero [19]): > 25 µM (active) | IC50 (Vero [20]): 10.8 µM (active)

N#Cc1ccc(Nc2nc(-c3ccc(O)cc3O)cs2)cc1
IC50 [21]: > 50 µM (not active) | IC50 [22]: 4.71 µM (active)

Cc1cc(C(=O)COC(=O)c2ccco2)c(C)n1Cc1ccccc1
EC50 [23]: > 30 µM (not active)

CCCC[C@H](CN[C@@H](CNC)[C@H](C)CC)NCCC12CCC(CC1)C2
IC50 [24]: > 20 µM (inactive) | IC50 [25]: 6.54 µM (active)

Cc1coc2c(O)cc3c(c12)OC1(N2CCCCC2)C(=O)NCCCC31 (centres undefined)
EC50 [26]: 11 µM (active) | IC50 (Genome polyprotein): 27.4 µM (active) | IC50 [27]: 35.2 µM (active) | IC50 (Nonstructural protein 1): > 100 µM (active) | EC50 [28]: 11.3 µM (active) | IC50 [29]: > 50 µM (not active)
